From patent publication US20250179061A1 (SIRONAX LTD., priority 2022, published 2025) come the findings set out here.

pIC50: −log10 of the molar value. Like-named read-outs stand apart in the source and are kept apart here.

The assay deals with HT-29 cells. Description: HT-29 necroptosis cell viability assay (TNF-α/SMAC mimetic/zVAD-FMK, CellTiter-Glo). Format: cell-based. The conditions noted are these: read-out: Activity. Put shortly:
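HT-29 cells (~5,000/well, overnight) in FBS-free McCoy's 5A with TNF-α 10 ng/ml, SMAC mimetic 6 μM and zVAD-FMK 10 μM plus 10-point 1:3 compound titration, 20 h at 37°C. ATP measured by CellTiter-Glo luminescence; IC50 as geometric mean of duplicates.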
In general terms: In ATP-based viability assays light output follows the ATP content of the culture.

Where [1] appears, read: Homo sapiens, HT-29, HT-29 necroptosis cell viability, IC50 class symbols.
Where [2] appears, read: Homo sapiens, HT-29, HT-29 necroptosis cell viability assay, class symbols for IC50.
Where [3] appears, read: Homo sapiens, HT-29 cells stimulated with TNF-α (10 ng/ml), SMAC mimetic (6 μM) and zVAD-FMK (10 μM), 20 hours, CellTiter-Glo ATP luminescence, geometric mean IC50 from 10 points.

In the case of `CCOC1CN(c2nccc(Oc3ccc(-n4ncn(Cc5c(F)cccc5F)c4=O)cc3)c2N)C1` [Example 409, 2-(4-((3-amino-2-(3-ethoxyazetidin-1-yl)pyridin-4-yl)oxy)phenyl)-4-(2,6-difluorobenzyl)-2,4-dihydro-3H-1,2,4-triazol-3-one], the pIC50 under setting [1] was 6.00 to 7.00.

For the compound `Cc1nc(C(N)=O)sc1Oc1ccc(-n2nc3n(c2=O)C(c2ccccc2)CC3F)cc1F` (centres unmarked) [Example 80, 5-(2-fluoro-4-(7-fluoro-3-oxo-5-phenyl-3,5,6,7-tetrahydro-2H-pyrrolo[2,1-c][1,2,4]triazol-2-yl)phenoxy)-4-methylthiazole-2-carboxamide], the pIC50 (HT-29 cells stimulated with TNF-α (10 ng/ml), SMAC mimetic (6 μM) and zVAD-FMK (10 μM), 20 hours, CellTiter-Glo ATP luminescence, geometric mean IC50 from 10 points) was greater than 7.00. Consider `Cc1nc(C2=CCCC2)sc1Oc1ccc(-n2ncn(Cc3c(F)cccc3F)c2=O)cc1` [Example 546, 2-(4-((2-(cyclopent-1-en-1-yl)-4-methylthiazol-5-yl)oxy)phenyl)-4-(2,6-difluorobenzyl)-2,4-dihydro-3H-1,2,4-triazol-3-one], for which the pIC50 under setting [2] was greater than 7.00.

In the case of `Cc1ccn(Cc2ccc(-n3ncn(Cc4c(F)cccc4F)c3=O)cc2)n1` [Example 192, 4-(2,6-difluorobenzyl)-2-(4-((3-methyl-1H-pyrazol-1-yl)methyl)phenyl)-2,4-dihydro-3H-1,2,4-triazol-3-one], the pIC50 under setting [2] is greater than 7.00. As for `Cc1nc(C2CC(C)(O)C2)sc1Oc1ccc(-n2ncn(Cc3c(F)cccc3F)c2=O)cc1F` (centres unmarked) [Example 119, 4-(2,6-difluorobenzyl)-2-(3-fluoro-4-((2-(3-hydroxy-3-methylcyclobutyl)-4-methylthiazol-5-yl)oxy)phenyl)-2,4-dihydro-3H-1,2,4-triazol-3-one], under setting [3], the pIC50 is greater than 7.00. With `Cc1nc(C2(O)COC2)sc1Oc1ccc(-n2nc3n(c2=O)[C@H](c2ccccc2)CC3)cc1F` [Example 114, (S)-2-(3-fluoro-4-((2-(3-hydroxyoxetan-3-yl)-4-methylthiazol-5-yl)oxy)phenyl)-5-phenyl-2,5,6,7-tetrahydro-3H-pyrrolo[2,1-c][1,2,4]triazol-3-one], the pIC50 under setting [2] is greater than 7.00. `O=c1n(Cc2c(F)cccc2F)cnn1-c1ccc(Oc2cc(C3CCOCC3)ncc2F)c(F)c1` [Example 553, 4-(2,6-difluorobenzyl)-2-(3-fluoro-4-((5-fluoro-2-(tetrahydro-2H-pyran-4-yl)pyridin-4-yl)oxy)phenyl)-2,4-dihydro-3H-1,2,4-triazol-3-one]: the pIC50 under setting [2] is 6.00 to 7.00.

With `COC1(C#N)CN(c2cc(Oc3ccc(-n4ncn(Cc5c(F)cccc5F)c4=O)cc3)c(C)cn2)C1` [Example 320, 1-(4-(4-(4-(2,6-difluorobenzyl)-5-oxo-4,5-dihydro-1H-1,2,4-triazol-1-yl)phenoxy)-5-methylpyridin-2-yl)-3-methoxyazetidine-3-carbonitrile], under setting [1], the pIC50 was greater than 7.00. Regarding `Cn1nc(C(N)=O)cc1Oc1ccc(-n2nc3n(c2=O)[C@H](c2ccccc2F)C[C@@H]3F)cc1F` (single isomer, unassigned) [Example 699], under setting [3], the pIC50 was greater than 7.00. Still for that read-out and setting: with `NC(=O)c1cnc(Oc2ccc(-n3ncn(Cc4c(F)cccc4F)c3=O)cc2)s1` [Example 82, 2-(4-(4-(2,6-difluorobenzyl)-5-oxo-4,5-dihydro-1H-1,2,4-triazol-1-yl)phenoxy)thiazole-5-carboxamide] the figure was 6.00 to 7.00.

For the compound `Cc1nc(CC(C)(C)O)sc1Oc1ccc(-n2ncn(Cc3c(F)cccc3F)c2=O)cc1F` [Example 154, 4-(2,6-difluorobenzyl)-2-(3-fluoro-4-((2-(2-hydroxy-2-methylpropyl)-4-methylthiazol-5-yl)oxy)phenyl)-2,4-dihydro-3H-1,2,4-triazol-3-one], under setting [2], the pIC50 is greater than 7.00.

As for `Nc1cnc(Cl)cc1Oc1ccc(-n2ncn(Cc3c(F)cccc3F)c2=O)cc1` [Example 441, 2-(4-((5-amino-2-chloropyridin-4-yl)oxy)phenyl)-4-(2,6-difluorobenzyl)-2,4-dihydro-3H-1,2,4-triazol-3-one], the pIC50 under setting [1] was greater than 7.00.

For `O=c1n(Cc2c(F)cccc2F)cnn1-c1ccc(Oc2ccnc(N3CC4(CCO4)C3)c2)cc1` [Example 300, 4-[(2,6-difluorophenyl)methyl]-2-[4-[[2-(1-oxa-6-azaspiro[3.3]heptan-6-yl)-4-pyridyl]oxy]phenyl]-1,2,4-triazol-3-one], the pIC50 under setting [1] is 6.00 to 7.00. Turning to `CCOC1CN(c2nccc(Oc3ccc(-n4nc(C)n(Cc5ccccc5)c4=O)cc3)c2F)C1` [Example 304, 4-benzyl-2-[4-[[2-(3-ethoxyazetidin-1-yl)-3-fluoro-4-pyridyl]oxy]phenyl]-5-methyl-1,2,4-triazol-3-one], the pIC50 under setting [1] was 6.00 to 7.00. On to `Cc1nc(CC2CNC2)sc1Oc1ccc(-n2ncn(Cc3c(F)cccc3F)c2=O)cc1` [Example 312, 2-(4-((2-(azetidin-3-ylmethyl)-4-methylthiazol-5-yl)oxy)phenyl)-4-(2,6-difluorobenzyl)-2,4-dihydro-3H-1,2,4-triazol-3-one], for which, under setting [1], the pIC50 was greater than 7.00. As to `Cc1nc(C(N)=O)sc1Oc1ccc(-n2nc3n(c2=O)[C@H](c2ccccc2)CC3)cc1F` (single isomer, unassigned) [Example 14], the pIC50 under setting [3] is greater than 7.00. As to `Cc1nc(C(=O)N2CC(C)(O)C2)sc1Oc1ccc(-n2ncn(Cc3ncccc3F)c2=O)cc1F` [Example 608, 2-(3-fluoro-4-((2-(3-hydroxy-3-methylazetidine-1-carbonyl)-4-methylthiazol-5-yl)oxy)phenyl)-4-((3-fluoropyridin-2-yl)methyl)-2,4-dihydro-3H-1,2,4-triazol-3-one], the pIC50 under setting [2] is greater than 7.00.

Take `O=c1n(Cc2c(F)cccc2F)cnn1-c1ccc(Oc2ccnc(N3CCOC4(COC4)C3)c2)cc1` [Example 269, 2-(4-((2-(2,5-dioxa-8-azaspiro[3.5]nonan-8-yl)pyridin-4-yl)oxy)phenyl)-4-(2,6-difluorobenzyl)-2,4-dihydro-3H-1,2,4-triazol-3-one]: the pIC50 under setting [1] was 6.00 to 7.00. `Cc1cnc(N2CC(C)(C(N)=O)C2)cc1Oc1ccc(-n2ncn(Cc3c(F)cccc3F)c2=O)cc1Cl` [Example 568, 1-(4-(2-chloro-4-(4-(2,6-difluorobenzyl)-5-oxo-4,5-dihydro-1H-1,2,4-triazol-1-yl)phenoxy)-5-methylpyridin-2-yl)-3-methylazetidine-3-carboxamide]: the pIC50 under setting [2] was greater than 7.00. Turning to `CC1(OC(F)(F)F)CN(c2cc(Oc3ccc(-n4ncn(Cc5c(F)cccc5F)c4=O)cc3F)c(Cl)cn2)C1` [Example 506, 2-(4-((5-chloro-2-(3-methyl-3-(trifluoromethoxy)azetidin-1-yl)pyridin-4-yl)oxy)-3-fluorophenyl)-4-(2,6-difluorobenzyl)-2,4-dihydro-3H-1,2,4-triazol-3-one], the pIC50 under setting [2] is greater than 7.00. Same read-out and setting: for `Cc1nc(CN)sc1Oc1ccc(-n2ncn(Cc3c(F)cccc3F)c2=O)cc1F` [Example 159, 2-(4-((2-(aminomethyl)-4-methylthiazol-5-yl)oxy)-3-fluorophenyl)-4-(2,6-difluorobenzyl)-2,4-dihydro-3H-1,2,4-triazol-3-one] the value was greater than 7.00.

As for `Cc1nn(CCO)c(C)c1Oc1ccc(-n2ncn(Cc3c(F)cccc3F)c2=O)cc1F` [Example 180, 4-(2,6-difluorobenzyl)-2-(3-fluoro-4-((1-(2-hydroxyethyl)-3,5-dimethyl-1H-pyrazol-4-yl)oxy)phenyl)-2,4-dihydro-3H-1,2,4-triazol-3-one], the pIC50 under setting [2] is greater than 7.00. With `Cc1nc(C2CN(C(=O)OC(C)(C)C)C2)sc1Oc1ccc(-n2ncn(Cc3c(F)cccc3F)c2=O)cc1F` [Example 41, tert-butyl 3-(5-(4-(4-(2,6-difluorobenzyl)-5-oxo-4,5-dihydro-1H-1,2,4-triazol-1-yl)-2-fluorophenoxy)-4-methylthiazol-2-yl)azetidine-1-carboxylate], the pIC50 under setting [3] is greater than 7.00. On to `Cc1nc(C(C)(C)O)sc1Oc1ccc(-n2ncn(Cc3c(F)cccc3F)c2=O)cc1F` [Example 462, 4-(2,6-difluorobenzyl)-2-(3-fluoro-4-((2-(2-hydroxypropan-2-yl)-4-methylthiazol-5-yl)oxy)phenyl)-2,4-dihydro-3H-1,2,4-triazol-3-one], for which, under setting [1], the pIC50 is greater than 7.00. On the same count and under the same terms, for `CCNC1(C)CN(c2cc(Oc3ccc(-n4ncn(Cc5c(F)cccc5F)c4=O)cc3F)c(F)cn2)C1` [Example 419, 4-(2,6-difluorobenzyl)-2-(4-((2-(3-(ethylamino)-3-methylazetidin-1-yl)-5-fluoropyridin-4-yl)oxy)-3-fluorophenyl)-2,4-dihydro-3H-1,2,4-triazol-3-one] the value was 6.00 to 7.00; for `CCOC1CN(c2cc(Oc3ccc(-n4ncn(Cc5c(F)cccc5F)c4=O)cc3Cl)c(Cl)cn2)C1` [Example 260, 2-(3-chloro-4-((5-chloro-2-(3-ethoxyazetidin-1-yl)pyridin-4-yl)oxy)phenyl)-4-(2,6-difluorobenzyl)-2,4-dihydro-3H-1,2,4-triazol-3-one], greater than 7.00. Regarding `CC(C)(C)CNc1cc(Oc2ccc(-n3ncn(Cc4c(F)cccc4F)c3=O)cc2)ccn1` [Example 386, 4-(2,6-difluorobenzyl)-2-(4-((2-(neopentylamino)pyridin-4-yl)oxy)phenyl)-2,4-dihydro-3H-1,2,4-triazol-3-one], under setting [1], the pIC50 is greater than 7.00. Regarding `Cc1nc(C#N)sc1Oc1ccc(-n2ncn(Cc3c(F)cccc3C#N)c2=O)cc1F` [Example 571, 5-(4-(4-(2-cyano-6-fluorobenzyl)-5-oxo-4,5-dihydro-1H-1,2,4-triazol-1-yl)-2-fluorophenoxy)-4-methylthiazole-2-carbonitrile], under setting [2], the pIC50 is greater than 7.00. `CC(C)(C)CCNc1cc(Oc2ccc(-n3ncn(Cc4c(F)cccc4F)c3=O)cc2)ccn1` [Example 385, 4-(2,6-difluorobenzyl)-2-(4-((2-((3,3-dimethylbutyl)amino)pyridin-4-yl)oxy)phenyl)-2,4-dihydro-3H-1,2,4-triazol-3-one]: the pIC50 under setting [1] is 5.00 to 6.00.
